PMC7047876, “Potent Chimeric Antimicrobial Derivatives of the Medicago truncatula NCR247 Symbiotic Peptide” (Frontiers in Microbiology, 2020)
In brackets after ≈: the same amount, converted by molar mass. Peptide text beside a SMILES is read from it.

How the values were obtained:
Assay type in all cases: cell-based
[1] = test system: Enterococcus faecalis (ATCC 29212); test: microbe, parasite or virus in culture; conditions: ATCC 29212, 3 h, pH 7.4; read-out: Minimal bactericidal concentration (MBC) E. f.
Source text: (§1) The pathogenic bacterial strains obtained from the ATCC (United States) and NCTC (National Collection of Type Cultures – England) were the Gram-positive: Enterococcus faecalis (ATCC 29212), Staphylococcus aureus (HNCMO112011), Listeria monocytogenes (ATCC 19111) and the Gram-negative: Pseudomonas aeruginosa (ATCC 27853), Escherichia coli (ATCC 8739), Salmonella enterica (ATCC 13076), Klebsiella pneumoniae (NCTC 13440), Acinetobacter baumannii (ATCC 17978).
(§2) Overnight bacterial cultures grown in LB were diluted and grown to OD600 = 0.2–0.6 at 37°C with shaking. After harvesting and washing bacteria in PPB, the suspensions were adjusted to OD600 = 0.1 corresponding to ∼10^7 bacteria/mL. Antimicrobial activity of the peptides and the antibiotics was determined in PPB in 96 well microplates using 10 μL bacterial suspension and 90 μL of the 2-fold serial dilutions of peptides or antibiotics. Peptides were tested from 25 μM to 0.125 μM whereas the antibiotics; carbenicillin (Cb) from Duchefa Biochemie (Prod.No. C0109.0025) and levofloxacin (Lvx) from Sigma-Aldrich (Prod.No. 28266-10MG-F) from […] to 0.1 μM. The microplates were incubated for 3 h at 37°C with 250 rpm shaking and then 5 μl from each sample was placed on LB agar and the growth of bacteria was monitored after overnight incubation at 37°C. The lowest concentration of the antimicrobial agents, which completely eliminated viable bacteria was the minimal bactericidal concentration (MBC).

[2] = test system: Acinetobacter baumannii (ATCC 17978); test: microbe, parasite or virus in culture; conditions: ATCC 17978, 3 h, pH 7.4; read-out: Minimal bactericidal concentration (MBC) A. b.
Source text: as §1, §2

[3] = test system: Klebsiella pneumoniae (NCTC 13440); test: microbe, parasite or virus in culture
Source text: as §1, §2

[4] = test system: Pseudomonas aeruginosa (ATCC 27853); test: microbe, parasite or virus in culture; conditions: ATCC 27853, 3 h, pH 7.4; read-out: Minimal bactericidal concentration (MBC) P. a.
Source text: as §1, §2

[5] = test system: Salmonella enterica (ATCC 13076); test: microbe, parasite or virus in culture; conditions: ATCC 13076, 3 h, pH 7.4; read-out: Minimal bactericidal concentration (MBC) S. e.
Source text: as §1, §2

[6] = test system: Listeria monocytogenes (ATCC 19111); test: microbe, parasite or virus in culture; conditions: for MBC: ATCC 19111, 3 h, pH 7.4, read-out: Minimal bactericidal concentration (MBC) L. m.
Source text: as §1, §2

[7] = test system: Staphylococcus aureus (HNCMO112011); test: microbe, parasite or virus in culture; conditions: HNCMO112011, 3 h, pH 7.4; read-out: Minimal bactericidal concentration (MBC) S. a.
Source text: as §1, §2

[8] = test system: Escherichia coli (ATCC 8739); test: microbe, parasite or virus in culture; conditions: ATCC 8739, 3 h, pH 7.4; read-out: Minimal bactericidal concentration (MBC) E. c.
Source text: as §1, §2

Staphylococcus aureus = conditions: for MBC in Mueller Hinton Broth, panel (A), S. a.: 3 h; for MBC in Mueller Hinton Broth, panel (B), S. a. / MIC in Mueller Hinton Broth, panel (C), S. a.: 20 h
Source text: as §1
(§3) Ca^2+ and Mg^2+ can inhibit the antimicrobial activity of cationic peptides, therefore the MBC and MIC values were also determined in MHB, which unlike PPB contains divalent cations and allows growth of bacteria. Bacteria were grown and prepared similarly except that bacteria were resuspended in MHB. 10 μl of bacteria OD600 = 0.1, supplemented with 45 μl MHB and 45 μl of 2-fold dilution series of peptides, were cultivated for 3 and 20 h at 37°C with shaking. Optical density of each sample was measured (Hidex Sense Microplate Reader with Plate Reader Software version 5064) and 5 μl was placed on LB agar plates after 3 and 20 h treatment. The minimal inhibitory concentration (MIC) corresponded to the lowest concentration, which inhibited growth.

Escherichia coli = conditions: for MBC in Mueller Hinton Broth, panel (A), E. c.: 3 h; for MBC in Mueller Hinton Broth, panel (B), E. c. / MIC in Mueller Hinton Broth, panel (C), E. c.: 20 h
Source text: as §1, §3

Acinetobacter baumannii = conditions: for MBC in Mueller Hinton Broth, panel (A), A. b.: 3 h; for MBC in Mueller Hinton Broth, panel (B), A. b. / MIC in Mueller Hinton Broth, panel (C), A. b.: 20 h
Source text: as §1, §3

[9] = 3 h treatment in PPB (20 mM potassium-phosphate buffer, pH 7.4), 37°C, then plating on LB agar

CC[C@H](C)[C@H](NC(=O)[C@H](CS)NC(=O)CNC(=O)[C@H](CC(N)=O)NC(=O)[C@@H](N)CCCNC(=N)N)C(=O)N[C@H](C(=O)N[C@@H](CC(=O)O)C(=O)N1CCC[C@H]1C(=O)N[C@@H](CCCNC(=N)N)C(=O)N[C@@H](CS)C(=O)N1CCC[C@H]1C(=O)N[C@@H](Cc1ccc(O)cc1)C(=O)N[C@@H](CCC(N)=O)C(=O)N[C@@H](CCC(N)=O)C(=O)N[C@@H](CS)C(=O)N[C@@H](CCCNC(=N)N)C(=O)N[C@@H](CCCNC(=N)N)C(=O)N1CCC[C@H]1C(=O)N[C@@H](CC(C)C)C(=O)N[C@@H](Cc1ccc(O)cc1)C(=O)N[C@@H](CS)C(=O)N[C@@H](CCCNC(=N)N)C(=O)N[C@@H](CCCNC(=N)N)C(=O)N[C@@H](CCCNC(=N)N)C(N)=O)C(C)C [A, NCR247] (H-RNGCIVDPRCPYQQCRRPLYCRRR-NH2; N-terminus assumed)
MBC [1]: >25 µM | MBC [2]: 12.5 µM (≈ 37.6 µg/mL) | Minimal bactericidal concentration (MBC) K. p. [3, 9]: resistant at 25 μM | MBC [4]: 3.1 µM (≈ 9.33 µg/mL) | MBC [5]: 25 µM (≈ 75.2 µg/mL) | Minimal bactericidal concentration (MBC) L. m. [6, 9]: resistant at 25 μM | MBC [6]: >25 µM | MBC [7]: 6.3 µM (≈ 19 µg/mL) | MBC [8]: 6.3 µM (≈ 19 µg/mL) | MBC in Mueller Hinton Broth, panel (A), S. a. (Staphylococcus aureus): > 25 µM | MBC in Mueller Hinton Broth, panel (B), S. a. (Staphylococcus aureus): >25 µM | MIC in Mueller Hinton Broth, panel (C), S. a. (Staphylococcus aureus): >25 µM | MBC in Mueller Hinton Broth, panel (A), E. c. (Escherichia coli): > 25 µM | MBC in Mueller Hinton Broth, panel (B), E. c. (Escherichia coli): >25 µM | MIC in Mueller Hinton Broth, panel (C), E. c. (Escherichia coli): 25 µM (≈ 75.2 µg/mL) | MBC in Mueller Hinton Broth, panel (A), A. b. (Acinetobacter baumannii): > 25 µM | MBC in Mueller Hinton Broth, panel (B), A. b. (Acinetobacter baumannii): >25 µM | MIC in Mueller Hinton Broth, panel (C), A. b. (Acinetobacter baumannii): >25 µM

CC(C)C[C@H](NC(=O)[C@@H]1CCCN1C(=O)[C@H](CCCNC(=N)N)NC(=O)[C@H](CCCNC(=N)N)NC(=O)[C@H](CS)NC(=O)[C@H](CCC(N)=O)NC(=O)[C@@H](N)CCC(N)=O)C(=O)N[C@@H](Cc1ccc(O)cc1)C(=O)N[C@@H](CS)C(=O)N[C@@H](CCCNC(=N)N)C(=O)N[C@@H](CCCNC(=N)N)C(=O)N[C@@H](CCCNC(=N)N)C(N)=O [B, NCR247C] (H-QQCRRPLYCRRR-NH2; N-terminus assumed)
MBC [1]: >25 µM | MBC [2]: 25 µM (≈ 40.8 µg/mL) | MBC ([3]; NCTC 13440, 3 h, pH 7.4, read-out: Minimal bactericidal concentration (MBC) K. p.): >25 µM | MBC [4]: 25 µM (≈ 40.8 µg/mL) | MBC [5]: >25 µM | MBC [6]: >25 µM | MBC [7]: >25 µM | MBC [8]: 6.3 µM (≈ 10.3 µg/mL) | MBC in Mueller Hinton Broth, panel (A), S. a. (Staphylococcus aureus): > 25 µM | MBC in Mueller Hinton Broth, panel (B), S. a. (Staphylococcus aureus): >25 µM | MIC in Mueller Hinton Broth, panel (C), S. a. (Staphylococcus aureus): >25 µM | MBC in Mueller Hinton Broth, panel (A), E. c. (Escherichia coli): > 25 µM | MBC in Mueller Hinton Broth, panel (B), E. c. (Escherichia coli): >25 µM | MIC in Mueller Hinton Broth, panel (C), E. c. (Escherichia coli): >25 µM | MBC in Mueller Hinton Broth, panel (A), A. b. (Acinetobacter baumannii): > 25 µM | MBC in Mueller Hinton Broth, panel (B), A. b. (Acinetobacter baumannii): >25 µM | MIC in Mueller Hinton Broth, panel (C), A. b. (Acinetobacter baumannii): >25 µM
